Reference: US20030203975A1, “Anti-cancer agents” (priority 1998, published 2003)

Columns and labels:
Topoisomerase I = target: T1, Topoisomerase I (Homo sapiens, UniProt P11387); assay: Topo I relaxation assay; assay type: biochemical; conditions: unit not given; compound at 1, 10, 25 and 50 μM in protocol
T1 sequence (P11387 1-765): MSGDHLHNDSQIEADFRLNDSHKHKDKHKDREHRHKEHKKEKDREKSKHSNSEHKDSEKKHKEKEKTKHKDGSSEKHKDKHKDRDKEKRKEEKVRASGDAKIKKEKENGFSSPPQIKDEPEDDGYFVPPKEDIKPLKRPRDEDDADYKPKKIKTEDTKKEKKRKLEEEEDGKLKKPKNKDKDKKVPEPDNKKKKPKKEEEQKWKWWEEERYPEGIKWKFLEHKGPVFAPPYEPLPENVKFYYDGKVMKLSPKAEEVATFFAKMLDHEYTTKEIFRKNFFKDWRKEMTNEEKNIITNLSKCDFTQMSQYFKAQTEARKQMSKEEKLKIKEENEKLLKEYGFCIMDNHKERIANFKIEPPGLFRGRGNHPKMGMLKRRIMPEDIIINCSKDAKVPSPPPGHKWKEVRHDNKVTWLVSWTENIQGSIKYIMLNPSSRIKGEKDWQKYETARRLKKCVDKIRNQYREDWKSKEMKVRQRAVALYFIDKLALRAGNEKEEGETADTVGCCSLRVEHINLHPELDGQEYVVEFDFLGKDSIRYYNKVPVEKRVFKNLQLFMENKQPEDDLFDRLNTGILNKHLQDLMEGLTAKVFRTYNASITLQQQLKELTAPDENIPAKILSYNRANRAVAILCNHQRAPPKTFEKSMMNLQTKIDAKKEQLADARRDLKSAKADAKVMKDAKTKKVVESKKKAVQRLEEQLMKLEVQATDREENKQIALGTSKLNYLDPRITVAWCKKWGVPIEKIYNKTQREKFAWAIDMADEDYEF
Source text: Topo I Relaxation Assay Protocol.

Topoisomerase IIα = Topoisomerase IIα (Homo sapiens, UniProt P11388); assay: Topo II cleavage assay; assay type: biochemical; set-up: key: ‘—’ = Not active; conditions: unit not given; compound at 1, 10, 25 and 50 μM in protocol
Method: Topo II 5 μl (1-1 μg); […] Results are included in Table 3 below.

[1] = test system: DNA: Calf thymus sodium salt; assay: DNA binding assay, ethidium bromide displacement; set-up: key: NB = Not binding; conditions: concentration required to displace 50% of the ethidium bromide; 20 μM DNA, 2 μM dye
Method: The propensity of selected compounds to bind to DNA in the absence of topos was measured in order to identify compounds that would bind weakly, or not at all. […] A […] was used determine binding constants of the compound to DNA by displacement of either ethidium bromide (an intercalator) or Hoechst dye 33258 (a groove binder) which form a DNA-bound fluorescent complex measured by fluorescence spectroscopy.
DNA Binding Assay Protocol
In order to detect the strength and mode of anthraquinone compound binding to DNA the displacement of known DNA binders was detected by measuring the fluorescence of a DNA/fluorescent compound complex. The addition of known concentrations of ethidium bromide, an interchelator, and Hoescht Dye, a groove binder, cause a fluorescent DNA/binder complex that can be detected and the fluorescence quantified. The addition of anthraquinone compounds displaces the interchelators or groove binders, depending on the compound mode of DNA binding, and therefore reduces the fluorescence accordingly. The preferred binding action of compounds can be quantified by determining the reduction in fluorescence resulting from a given concentration of compound. The quantification of a compounds ability to bind to DNA is expressed, as the concentration required to displace 50% of the ethidium bromide or Hoescht Dye, thus reducing the fluorescence by 50%. Therefore, the values produced are QE50 for ethidium, bromide, or QH50 for Hoescht Dye.
Compound: 300, 60, 10 and 10/6gM (1.66 μM) solution concentrations were prepared for use in the assay to produce a range of compound. Concentrations. 100, 200 and 300 μl of each dilution were used in the assay reaction. This provides a range of concentrations: −30, 20, 10, 6, 4, 2, 1, 0.67, 0.33, 0.17, 0.11, 0.06, 0.00 μM in the assay environment. Intermediate concentrations can be utilised to enhance the accuracy of the displacement concentration determination.
Buffer: 100 mM Tris, NaCI 500 mM. DNA: Calf thymus sodium salt. Stock solution of 200 μM was prepared in 10× assay buffer. Dilution of DNA therefore provided the correct concentration of assay buffer in the assay cell.300 μg DNA was used in 3 ml reaction mixture therefore 20 μM DNA concentration. Hoescht Dye 2 μM final concentration, therefore 100 μl of a 60 μM stock solution was added to a 3 ml assay. Ethidium Bromide 2 μM final concentration therefore 100 μl of a 60 μM stock solution was added to a 3 ml assay. Distilled H2O Water was added to produce 3 ml reaction volume. Order of addition: 1. DNA, 2. Water, 3. Drug, 4. Dye
The assay was completed with both Hoescht Dye and Ethidium. Bromide for each compound. The ethidium bromide is a DNA inter-chelator, Hoescht Dye is a minor groove binder. 100, 200 and […] of the lowest compound dilution was assayed. This procedure was repeated with all further dilution's. This provided a curve of fluorescence intensity decrease with increasing compound concentration. QE50 and QH50 values were determined by extrapolating the concentration of compound at the point where the fluorescence intensity was reduced by 50%. Controls involving compound only and ethidium. bromide or Hoechst Dye without compound were carried out for each experiment. Two readings for each concentration of compound were performed per experiment, each experiment was repeated at least three times. Fluorometer: Perkin Elmer Luminescence Spectrometer LS 50B.

Topoisomerase IIβ = Topoisomerase IIβ (Homo sapiens, UniProt Q02880); assay: Topo II decatenation assay; assay type: biochemical; conditions: unit not given; kDNA substrate; compound at 1, 10, 25 and 50 μM in protocol
Method: Topisomerase Decatenation Assay.
This method uses catenated DNA substrate prepared from the kinetoplast of the insect trypanosome Crithidia fasciculata. Upon incubation with topo II, which engages DNA in a double stranded breakage-reunion cycle, DNA minicircles are released. Addition of topo-inhibiting drugs may prevent decatenation.
Topo II Decatenation Assay Protocol
This assay is the same as the Topo II Relaxation assay except that the pBR 322 Plasmid DNA is replaced with kDNA.
Results are included in Table 3 below

Topoisomerase IIβ, sequence (Q02880 whole entry): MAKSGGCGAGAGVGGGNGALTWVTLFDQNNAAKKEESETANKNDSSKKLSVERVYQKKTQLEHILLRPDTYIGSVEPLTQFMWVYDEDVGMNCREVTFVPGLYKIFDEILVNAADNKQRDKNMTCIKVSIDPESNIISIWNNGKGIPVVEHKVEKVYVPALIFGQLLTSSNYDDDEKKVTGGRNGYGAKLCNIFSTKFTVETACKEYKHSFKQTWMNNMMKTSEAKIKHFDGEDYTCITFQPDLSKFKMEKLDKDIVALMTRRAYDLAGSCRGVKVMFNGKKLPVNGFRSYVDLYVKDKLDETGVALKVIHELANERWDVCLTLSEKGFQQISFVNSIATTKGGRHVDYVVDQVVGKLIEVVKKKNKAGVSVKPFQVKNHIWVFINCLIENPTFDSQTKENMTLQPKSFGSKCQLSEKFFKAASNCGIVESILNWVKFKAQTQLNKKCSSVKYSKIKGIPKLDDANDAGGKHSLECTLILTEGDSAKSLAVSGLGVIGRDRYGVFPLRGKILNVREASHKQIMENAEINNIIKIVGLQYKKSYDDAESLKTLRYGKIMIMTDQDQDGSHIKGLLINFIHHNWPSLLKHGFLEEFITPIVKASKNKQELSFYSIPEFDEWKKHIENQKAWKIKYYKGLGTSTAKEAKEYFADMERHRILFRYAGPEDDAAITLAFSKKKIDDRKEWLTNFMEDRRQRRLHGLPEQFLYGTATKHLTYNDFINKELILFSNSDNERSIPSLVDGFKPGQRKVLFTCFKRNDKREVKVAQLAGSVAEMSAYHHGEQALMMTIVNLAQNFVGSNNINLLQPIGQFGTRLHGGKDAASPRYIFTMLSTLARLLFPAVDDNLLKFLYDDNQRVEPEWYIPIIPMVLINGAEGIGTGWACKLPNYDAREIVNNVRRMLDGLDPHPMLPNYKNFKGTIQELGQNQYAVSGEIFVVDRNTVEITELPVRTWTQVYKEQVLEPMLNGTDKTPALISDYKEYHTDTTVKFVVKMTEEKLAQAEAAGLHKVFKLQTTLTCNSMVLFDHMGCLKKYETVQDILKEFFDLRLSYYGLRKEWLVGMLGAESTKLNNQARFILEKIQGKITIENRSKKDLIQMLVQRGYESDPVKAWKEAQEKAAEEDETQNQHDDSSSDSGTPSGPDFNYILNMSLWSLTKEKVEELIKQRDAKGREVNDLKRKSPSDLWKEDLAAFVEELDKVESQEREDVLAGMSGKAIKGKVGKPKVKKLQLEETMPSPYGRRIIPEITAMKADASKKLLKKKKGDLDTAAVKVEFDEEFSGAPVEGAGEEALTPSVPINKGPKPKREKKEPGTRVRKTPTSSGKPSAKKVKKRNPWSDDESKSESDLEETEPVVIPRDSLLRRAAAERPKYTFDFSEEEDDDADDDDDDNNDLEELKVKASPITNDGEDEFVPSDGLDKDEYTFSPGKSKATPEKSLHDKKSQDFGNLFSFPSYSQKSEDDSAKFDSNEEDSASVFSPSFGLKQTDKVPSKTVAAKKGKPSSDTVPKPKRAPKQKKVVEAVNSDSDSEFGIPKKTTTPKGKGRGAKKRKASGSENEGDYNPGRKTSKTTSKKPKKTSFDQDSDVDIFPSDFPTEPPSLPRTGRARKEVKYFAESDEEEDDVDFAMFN
Topoisomerase IIα, sequence (P11388 whole entry): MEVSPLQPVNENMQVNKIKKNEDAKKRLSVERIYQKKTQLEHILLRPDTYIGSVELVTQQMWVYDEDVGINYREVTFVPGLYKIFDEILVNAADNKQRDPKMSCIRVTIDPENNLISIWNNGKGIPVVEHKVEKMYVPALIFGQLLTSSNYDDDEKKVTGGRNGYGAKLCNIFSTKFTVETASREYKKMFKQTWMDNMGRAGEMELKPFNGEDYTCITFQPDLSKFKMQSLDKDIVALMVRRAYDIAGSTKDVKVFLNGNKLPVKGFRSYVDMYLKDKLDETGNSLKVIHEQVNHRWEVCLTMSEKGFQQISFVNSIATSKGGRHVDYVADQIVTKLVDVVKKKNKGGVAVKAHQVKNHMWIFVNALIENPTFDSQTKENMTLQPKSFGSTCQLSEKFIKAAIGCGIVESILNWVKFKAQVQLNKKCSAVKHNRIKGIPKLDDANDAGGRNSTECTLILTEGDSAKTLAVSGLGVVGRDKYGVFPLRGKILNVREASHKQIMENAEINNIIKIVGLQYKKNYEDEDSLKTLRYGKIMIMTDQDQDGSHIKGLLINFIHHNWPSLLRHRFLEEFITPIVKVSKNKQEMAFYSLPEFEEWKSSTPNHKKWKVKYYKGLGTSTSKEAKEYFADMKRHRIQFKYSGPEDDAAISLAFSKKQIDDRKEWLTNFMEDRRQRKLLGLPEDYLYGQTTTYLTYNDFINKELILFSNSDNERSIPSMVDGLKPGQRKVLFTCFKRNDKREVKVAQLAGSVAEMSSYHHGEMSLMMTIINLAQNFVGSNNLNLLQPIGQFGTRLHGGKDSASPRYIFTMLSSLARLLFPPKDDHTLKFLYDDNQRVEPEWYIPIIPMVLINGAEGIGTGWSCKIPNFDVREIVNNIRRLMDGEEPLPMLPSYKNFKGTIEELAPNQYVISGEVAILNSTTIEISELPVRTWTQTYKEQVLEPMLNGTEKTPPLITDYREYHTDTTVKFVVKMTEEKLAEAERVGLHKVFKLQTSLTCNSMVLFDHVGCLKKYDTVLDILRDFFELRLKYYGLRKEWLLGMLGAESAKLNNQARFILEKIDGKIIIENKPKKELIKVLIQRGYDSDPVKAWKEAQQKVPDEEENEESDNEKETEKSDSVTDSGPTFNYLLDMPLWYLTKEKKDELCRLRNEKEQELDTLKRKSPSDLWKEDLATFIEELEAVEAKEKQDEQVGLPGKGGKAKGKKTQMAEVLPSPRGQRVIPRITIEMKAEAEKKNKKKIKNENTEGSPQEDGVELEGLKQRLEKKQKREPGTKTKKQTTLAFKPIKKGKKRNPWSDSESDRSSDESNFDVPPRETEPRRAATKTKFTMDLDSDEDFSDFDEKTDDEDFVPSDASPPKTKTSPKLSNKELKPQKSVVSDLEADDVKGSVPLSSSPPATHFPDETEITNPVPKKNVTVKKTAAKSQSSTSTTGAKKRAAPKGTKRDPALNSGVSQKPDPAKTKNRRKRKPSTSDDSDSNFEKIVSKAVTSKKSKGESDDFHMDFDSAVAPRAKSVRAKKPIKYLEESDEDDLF

| Compound | TopI Relax. (Topoisomerase I) | TopIIα Cleave. (Topoisomerase IIα) | QE50 Intercalating [1] | TopIIβ Decat. (Topoisomerase IIβ) |
| --- | --- | --- | --- | --- |
| C[C@H](N)C(=O)OCCCCNc1cccc2c1C(=O)c1ccccc1C2=O.O=C(O)C(F)(F)F [Example 43, 1-[4-(L-alanyloxy)butylamino]anthracene-9,10-dione trifluoroacetate] | 25 | — | NB | 25 |
| C[C@@H](N)C(=O)OCCCCNc1cccc2c1C(=O)c1ccccc1C2=O.O=C(O)C(F)(F)F [Example 45, 1-[4-(D-alanyloxy)butylamino]anthracene-9,10-dione trifluoroacetate] | 25 | — | NB | 20 |
